Results published in paper PMC7093242 (Cell chemical biology, 2020).

Molecular target: Yck2-HA (HA-tagged Yck2) (Candida albicans, UniProt A0A1D8PKB4)
Assay: ADP-Glo kinase assay on immunoprecipitated Yck2-HA beads
Assay type: biochemical
Details: 25 μM ATP, 0.2 mg/mL casein kinase I peptide substrate, pH 7.5, 30°C; little effect

## CN[C@@H]1C[C@H]2O[C@@](C)([C@@H]1OC)n1c3ccccc3c3c4c(c5c6ccccc6n2c5c31)C(=O)NC4 [STS, staurosporine]
  concentration-dependent inhibition: the promiscuous PKI, staurosporine had little effect on Yck2 activity
